Consider 14 molecules from paper PMC12138161, “Structure–activity analysis of imino‐pyrimidinone‐fused pyrrolidines aids the development of dual plasmepsin V and plasmepsin X inhibitors” (The Febs Journal, 2025).

In assay [1] the target is T1, Plasmodium falciparum PMIX (Plasmodium falciparum, UniProt Q8ILG2).
T1 sequence (Q8ILG2 1-627): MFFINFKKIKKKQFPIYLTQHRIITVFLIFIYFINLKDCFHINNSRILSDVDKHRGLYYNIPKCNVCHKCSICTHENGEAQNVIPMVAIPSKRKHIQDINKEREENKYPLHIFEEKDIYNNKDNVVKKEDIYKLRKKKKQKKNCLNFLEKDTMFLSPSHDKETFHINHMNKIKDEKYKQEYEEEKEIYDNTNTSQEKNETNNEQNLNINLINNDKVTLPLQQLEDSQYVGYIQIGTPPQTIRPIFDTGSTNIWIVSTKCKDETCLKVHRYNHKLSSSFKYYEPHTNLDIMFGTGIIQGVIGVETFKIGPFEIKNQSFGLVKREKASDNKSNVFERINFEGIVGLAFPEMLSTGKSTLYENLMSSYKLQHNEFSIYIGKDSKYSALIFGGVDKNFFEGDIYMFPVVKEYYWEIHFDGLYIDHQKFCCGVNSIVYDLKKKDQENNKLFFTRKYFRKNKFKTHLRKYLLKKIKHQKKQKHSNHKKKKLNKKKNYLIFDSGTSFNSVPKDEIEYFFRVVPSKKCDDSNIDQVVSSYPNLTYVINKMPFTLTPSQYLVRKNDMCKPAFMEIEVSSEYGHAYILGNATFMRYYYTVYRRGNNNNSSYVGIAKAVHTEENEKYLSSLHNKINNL
Briefly: Plasmepsin IX fluorogenic substrate cleavage assay. As to conditions: P. falciparum PMIX; average of three independent experiments; read-out: PMIX IC50 (SD). In kind it is biochemical. The procedure:
(§1) These fluorogenic assays follow protocols previously described. Compound potency was assessed with 10 point, threefold dilution series starting at 100 μM in duplicate per experiment and repeated in three independent experiments. Data were normalized to percent inhibition relative to 1% DMSO (high control) and either 1 μM WEHI‐600 for PMV and 1 μM WM382 for PMIX/PMX (low controls). IC50 values (relative inflection of dose–response curve) were calculated using a nonlinear regression four‐parameter fit analysis in DOTMATICS 5.3 (Dotmatics, Boston, MA, USA) and SPOTFIRE 7.11.1 (Goteborg, Sweden) software. The equation used was sigmoidal dose–response (variable slope), Y = bottom + (top − bottom)/(1 + 10 ((logIC50 − X) × Hill Slope)). Reported IC50 values were calculated based on the averages of three independent dataset. Assay robustness and data quality was assessed by Z′ > 0.5 (Z′ = 1 − (3 × (SD high + SD low)/(mean high − mean low))) and activity reproducibility of reference compound. WEHI‐600 (PMV) or WM382 (PMIX/PMX) were included as reference compounds in every experiment to monitor the assay performance. Any drift in activity greater than threefold from the average acceptable range and the experiment was rejected and repeated.

Assay [2] deals with P. falciparum 3D7 asexual parasites. Briefly: P. falciparum growth inhibition assay (LDH activity, 72 h). In kind it is cell-based, Plasmodium falciparum. As to conditions: for EC50: Plasmodium falciparum, 3D7 asexual parasites, 72 h exposure, LDH activity, three independent experiments, read-out: Pf 3D7 EC50 (SD). The procedure:
The ability of compounds to block growth of blood stage P. falciparum parasites was determined using a growth inhibition assay (GIA) as described. Compound potency was assessed with 10 point, threefold dilution series starting at 10 μM in duplicate per experiment and repeated in three independent experiments. Data were normalized to percent viability relative to 0.1% DMSO (high growth control) and 2.5 μM chloroquine (low growth control). EC50 values (relative inflection of dose–response curve) were calculated using a nonlinear regression four‐parameter fit analysis in DOTMATICS 5.3 and SPOTFIRE 7.11.1 software. The equation used was sigmoidal dose–response (variable slope), Y = bottom + (top − bottom)/(1 + 10 ((logEC50 − X) × Hill Slope)). Reported EC50 values were calculated on the average of three independent dataset. Assay robustness and data quality was assessed by Z′ > 0.5 (Z′ = 1 − (3 × (SD high + SD low)/(mean high − mean low))) and activity reproducibility of reference compound WM382, which was included in every experiment. Any drift in WM382 activity greater than threefold from the average acceptable range and the experiment was rejected and repeated.

Another assay addresses P. falciparum PMX (Plasmodium falciparum, UniProt Q8IAS0). Put plainly: Plasmepsin X fluorogenic substrate cleavage assay. The format is biochemical. As to conditions: P. falciparum PMX; average of three independent experiments; read-out: PMX IC50 (SD). The procedure: as §1
Assay [3] concerns the target T2, recombinant Plasmodium vivax PMV (Plasmodium vivax, UniProt A5K302).
T2 construct: PvPMV (residues R35–R476) was prepared similarly; gp67 signal peptide (N); TEV protease cleavage site + FLAG tag (C); made in house; host or cells: Sf21 insect cells
Put plainly: Plasmepsin V fluorogenic substrate cleavage assay. In kind it is biochemical. The settings on record: for IC50: recombinant P. vivax PMV, average of three independent experiments, read-out: PMV IC50 (SD).
From the text: To uncover nonpeptidomimetic drug‐like inhibitors of the aspartic protease PvPMV, we screened a library of 1298 compounds that were known to inhibit human aspartyl proteases. These compounds were selected by chemoinformatic structural diversity from a larger library of compounds that targeted human aspartyl proteases and has been used previously to identify hit compounds that inhibited P. falciparum growth. These hit compounds belonged to a single chemical class and were used to develop a lead compound WM382 that is a dual selective inhibitor of PMIX and PMX from P. falciparum and P. vivax. The screen utilized a FRET‐based assay with PvPMV and a fluorogenic EDANS‐DACBYL labeled peptide with the P. falciparum knob‐associated histidine‐rich protein (KAHRP) PEXEL motif amino acid sequence.
as §1

Chain of P. falciparum PMX (Q8IAS0 222-573): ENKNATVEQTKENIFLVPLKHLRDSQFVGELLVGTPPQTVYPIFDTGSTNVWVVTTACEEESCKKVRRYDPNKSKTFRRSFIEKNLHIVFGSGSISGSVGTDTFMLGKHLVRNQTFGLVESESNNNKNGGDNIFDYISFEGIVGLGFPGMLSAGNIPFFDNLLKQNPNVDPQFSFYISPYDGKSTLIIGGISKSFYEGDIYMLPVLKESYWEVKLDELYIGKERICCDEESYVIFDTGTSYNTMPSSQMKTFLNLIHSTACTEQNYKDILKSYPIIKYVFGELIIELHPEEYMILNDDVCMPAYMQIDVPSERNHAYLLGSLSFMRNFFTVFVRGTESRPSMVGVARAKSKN
T2 sequence (A5K302 35-476): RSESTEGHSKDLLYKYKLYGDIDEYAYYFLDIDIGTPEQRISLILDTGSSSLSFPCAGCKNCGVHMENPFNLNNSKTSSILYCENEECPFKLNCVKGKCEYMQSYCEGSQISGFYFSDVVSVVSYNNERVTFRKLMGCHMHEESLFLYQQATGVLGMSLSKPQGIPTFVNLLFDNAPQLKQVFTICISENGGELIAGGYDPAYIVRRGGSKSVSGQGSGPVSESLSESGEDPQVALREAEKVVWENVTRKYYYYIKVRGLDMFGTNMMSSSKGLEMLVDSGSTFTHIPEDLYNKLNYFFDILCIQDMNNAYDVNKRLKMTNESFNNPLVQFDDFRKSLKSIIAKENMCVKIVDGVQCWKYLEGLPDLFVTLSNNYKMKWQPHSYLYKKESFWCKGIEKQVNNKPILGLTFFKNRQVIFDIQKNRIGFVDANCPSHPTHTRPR

The IC50 is the concentration at which inhibition is half-maximal. The EC50 is the concentration that produces a half-maximal response. Regarding `CN1C(=N)NC2(c3cc(F)ccc3F)CN(c3ncccc3-c3ccccc3F)CC2C1=O` (stereo not drawn) [Compound 7], the IC50 in assay [1] was determined as 4.53 µM; at P. falciparum PMX, 1.33 µM; in assay [3], 1.02 µM. The concentration for a half-maximal effect (EC50) in assay [2] is over 10 µM.

Consider `COc1ccc(-c2cccnc2N2CC3C(=O)N(C)C(=N)NC3(c3cc(F)ccc3F)C2)cc1` (stereo not drawn) [Compound 15], for which the IC50 in assay [1] is 2 µM; at P. falciparum PMX it was 0.473 µM; in assay [3] it was 3.6 µM. Further, the EC50 in assay [2] was over 10 µM.

Regarding `CN1C(=N)NC2(c3cc(F)ccc3F)CN(c3ncccc3-c3ccccc3C(F)(F)F)CC2C1=O` (stereo not drawn) [Compound 10], the values for the IC50 (in assay [1]; at P. falciparum PMX; in assay [3]) were 3.97 µM, 1.28 µM and 3.45 µM, respectively. Moreover, the EC50 in assay [2] is over 10 µM.

Turning to `CN1C(=N)NC2(c3cc(F)ccc3F)CN(c3ncccc3-c3ccc(Cl)s3)CC2C1=O` (stereo not drawn) [Compound 26], in assay [2], the EC50 was found to be 2.5 µM. For the same molecule, the IC50 on P. falciparum PMX is 0.07 µM; in assay [3] it was 0.61 µM.

As to `CN1C(=N)NC2(c3cc(F)ccc3F)CN(c3ncccc3-c3ccccc3)CC2C1=O` (stereo not drawn) [Compound 6], the figures for the IC50 (in assay [1]; on P. falciparum PMX; in assay [3]) were 3 µM, 1.07 µM and 0.44 µM, respectively. Besides, in assay [2], the EC50 is over 10 µM.

On to `COc1ccc(-c2cccnc2N2CC3C(=O)N(C)C(=N)NC3(c3cc(F)ccc3F)C2)c(Cl)c1` (stereo not drawn) [Compound 23], for which the values for the IC50 (in assay [1]; on P. falciparum PMX; in assay [3]) were 1.63 µM, 0.42 µM and 3.17 µM, respectively. Also, in assay [2], the EC50 was over 10 µM.

With `CN1C(=N)NC2(c3cc(F)ccc3F)CN(c3ncccc3-c3ccc(Cl)c(Cl)c3)CC2C1=O` (stereo not drawn) [Compound 19], the IC50 is 0.434 µM in assay [1], 0.187 µM on P. falciparum PMX and over 3.7 µM in assay [3]. The EC50 in assay [2] is over 10 µM.

`CN1C(=N)NC2(c3cc(F)ccc3F)CN(c3n[nH]cc3-c3ccccc3)CC2C1=O` (stereo not drawn) [R/S‐WM447 (28), 7a‐(2,5‐difluorophenyl)‐2‐imino‐3‐methyl‐6‐(4‐phenyl‐1H‐pyrazol‐3‐yl)hexahydro‐1H‐pyrrolo[3,4‐d]pyrimidin‐4(4aH)‐one]: the IC50 was found to be 2.17 µM in assay [1], 0.064 µM on P. falciparum PMX and 0.683 µM in assay [3]. Besides, the EC50 in assay [2] came out at 1.53 µM.

As to `CN1C(=N)NC2(c3cc(F)ccc3F)CN(c3ncccc3-c3ccccc3Cl)CC2C1=O` (stereo not drawn) [R/S‐WM36 (8)], the values for the IC50 (in assay [1]; on P. falciparum PMX; in assay [3]) were 4.87 µM, 1.1 µM and 0.807 µM, respectively. Moreover, the EC50 in assay [2] is over 10 µM. The “inhibition of P. falciparum asexual parasite replication / antimalarial activity (in words)” value in assay [2] (blood stage) is reported as “did not inhibit”.

Regarding `CN1C(=N)NC2(c3cc(F)ccc3F)CN(c3ncccc3-c3cccs3)CC2C1=O` (stereo not drawn) [Compound 24], the IC50 was determined as 1.2 µM in assay [1], 0.067 µM at P. falciparum PMX and 1.23 µM in assay [3]. Moreover, the EC50 in assay [2] was determined as 1.77 µM.

Consider `COc1ccccc1-c1cccnc1N1CC2C(=O)N(C)C(=N)NC2(c2cc(F)ccc2F)C1` (stereo not drawn) [Compound 11], for which the IC50 is over 10 µM in assay [1], 7.5 µM at P. falciparum PMX and 0.303 µM in assay [3]. Further, in assay [2], the EC50 is over 10 µM. For the same molecule, the “improvement of PMV inhibition” value in assay [3] (compared with WM36 (8)) was determined as 2.5 fold.

Take `CN1C(=N)NC2(c3cc(F)ccc3F)CN(c3ncccc3-c3ccc(F)cc3Cl)CC2C1=O` (stereo not drawn) [Compound 21]: the figures for the IC50 (in assay [1]; on P. falciparum PMX; in assay [3]) were 3.23 µM, 0.99 µM and 0.967 µM, respectively. Moreover, the half-maximal effective concentration (EC50) in assay [2] is over 10 µM.

In the case of `CN1C(=N)NC2(c3cc(F)ccc3F)CN(c3ncccc3-c3ccc(Cl)cc3C(F)(F)F)CC2C1=O` (stereo not drawn) [Compound 18], the IC50 was 1.08 µM in assay [1], 0.483 µM at P. falciparum PMX and over 3.7 µM in assay [3]. Besides, the EC50 in assay [2] was over 10 µM.

Regarding `Cc1ccccc1-c1cccnc1N1CC2C(=O)N(C)C(=N)NC2(c2cc(F)ccc2F)C1` (stereo not drawn) [Compound 9], the IC50 was 5.5 µM in assay [1], 2.07 µM at P. falciparum PMX and 0.61 µM in assay [3]. The EC50 in assay [2] was over 10 µM.
